Measurements from ChEMBL document CHEMBL3132769, “Fragment growing to retain or alter the selectivity of anchored kinase hinge-binding fragments” (Medchemcomm, 2014).

What was measured:
[1] = target: Tyrosine-protein kinase HCK (Homo sapiens) (UniProt P08631); assay: Inhibition of human HCK catalytic domain expressed in baculovirus assessed as substrate phosphorylation using fluorescence-labelled peptides as substrate at 0.2 uM after 90 mins by microfluidic peptide phosphorylation assay
Homo sapiens = species on record: Homo sapiens; assay: Inhibition of human P70S6K catalytic domain expressed in baculovirus assessed as substrate phosphorylation using fluorescence-labelled peptides as substrate at 2 uM after 90 mins by microfluidic peptide phosphorylation assay
[2] = tested on: T1, Receptor-type tyrosine-protein kinase FLT3 (Homo sapiens), P36888 [D835Y]; assay: Inhibition of human FLT3 D835Y mutant catalytic domain expressed in baculovirus assessed as substrate phosphorylation using fluorescence-labelled peptides as substrate at 2 uM after 90 mins by microfluidic peptide phosphorylation assay
T1 sequence (whole entry): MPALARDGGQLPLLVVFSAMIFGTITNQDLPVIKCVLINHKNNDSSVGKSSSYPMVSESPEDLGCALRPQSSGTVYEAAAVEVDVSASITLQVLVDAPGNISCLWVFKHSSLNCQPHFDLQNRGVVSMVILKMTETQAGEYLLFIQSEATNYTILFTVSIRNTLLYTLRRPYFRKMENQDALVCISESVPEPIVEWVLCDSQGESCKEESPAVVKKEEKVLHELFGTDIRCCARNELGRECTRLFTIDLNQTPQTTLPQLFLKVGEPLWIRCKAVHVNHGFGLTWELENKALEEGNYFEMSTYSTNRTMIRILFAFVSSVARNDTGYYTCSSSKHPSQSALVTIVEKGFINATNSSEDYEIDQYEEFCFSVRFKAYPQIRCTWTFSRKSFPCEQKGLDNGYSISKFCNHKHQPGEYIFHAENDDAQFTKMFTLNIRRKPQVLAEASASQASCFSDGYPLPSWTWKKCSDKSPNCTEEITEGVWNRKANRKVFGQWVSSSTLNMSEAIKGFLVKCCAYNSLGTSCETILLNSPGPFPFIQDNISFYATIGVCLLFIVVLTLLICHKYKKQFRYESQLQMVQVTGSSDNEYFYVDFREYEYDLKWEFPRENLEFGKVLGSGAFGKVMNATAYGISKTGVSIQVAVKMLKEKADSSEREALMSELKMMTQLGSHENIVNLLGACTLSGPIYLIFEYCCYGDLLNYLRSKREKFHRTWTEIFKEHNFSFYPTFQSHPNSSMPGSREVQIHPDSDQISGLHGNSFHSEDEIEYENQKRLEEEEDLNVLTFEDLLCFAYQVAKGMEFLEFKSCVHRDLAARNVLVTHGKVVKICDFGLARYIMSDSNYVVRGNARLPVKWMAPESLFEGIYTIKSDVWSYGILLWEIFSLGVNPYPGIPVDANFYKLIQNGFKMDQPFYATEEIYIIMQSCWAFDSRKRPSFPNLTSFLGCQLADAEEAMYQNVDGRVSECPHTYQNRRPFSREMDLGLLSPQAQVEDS

[3] = target: Ribosomal protein S6 kinase alpha-1 (Homo sapiens) (UniProt Q15418); assay: Inhibition of human full length RSK1 expressed in baculovirus assessed as substrate phosphorylation using fluorescence-labelled peptides as substrate at 0.1 uM after 90 mins by microfluidic peptide phosphorylation assay
[4] = target: MAP kinase-activated protein kinase 3 (Homo sapiens) (UniProt Q16644); assay: Inhibition of human full length MAPKAPK3 expressed in Escherichia coli cell assessed as substrate phosphorylation using fluorescence-labelled peptides as substrate at 95 uM after 90 mins by microfluidic peptide phosphorylation assay
[5] = target: T2, Serine/threonine-protein kinase Sgk1 (Homo sapiens) (UniProt O00141); assay: Inhibition of human truncated SGK1 expressed in baculovirus assessed as substrate phosphorylation using fluorescence-labelled peptides as substrate at 95 uM after 90 mins by microfluidic peptide phosphorylation assay
T2 sequence (whole entry): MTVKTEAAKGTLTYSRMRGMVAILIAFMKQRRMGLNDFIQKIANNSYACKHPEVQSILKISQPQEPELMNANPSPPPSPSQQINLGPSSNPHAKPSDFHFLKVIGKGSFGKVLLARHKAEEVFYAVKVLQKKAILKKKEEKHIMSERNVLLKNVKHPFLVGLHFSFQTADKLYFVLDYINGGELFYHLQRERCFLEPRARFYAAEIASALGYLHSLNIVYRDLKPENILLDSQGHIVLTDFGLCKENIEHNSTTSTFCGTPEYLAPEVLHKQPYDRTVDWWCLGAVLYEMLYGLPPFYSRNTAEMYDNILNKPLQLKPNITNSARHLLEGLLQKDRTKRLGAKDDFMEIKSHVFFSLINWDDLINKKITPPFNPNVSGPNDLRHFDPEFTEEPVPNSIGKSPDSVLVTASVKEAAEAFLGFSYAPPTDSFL

[6] = target: Insulin receptor (Homo sapiens) (UniProt P06213); assay: Inhibition of human INSR catalytic domain expressed in baculovirus assessed as substrate phosphorylation using fluorescence-labelled peptides as substrate at 8 uM after 90 mins by microfluidic peptide phosphorylation assay
[7] = target: Tyrosine-protein kinase Lck (Homo sapiens) (UniProt P06239); assay: Inhibition of human full length LCK expressed in baculovirus assessed as substrate phosphorylation using fluorescence-labelled peptides as substrate at 8 uM after 90 mins by microfluidic peptide phosphorylation assay
[8] = target: T3, Inhibitor of nuclear factor kappa-B kinase subunit beta (Homo sapiens) (UniProt O14920); assay: Inhibition of human full length IKK beta expressed in baculovirus assessed as substrate phosphorylation using fluorescence-labelled peptides as substrate at 1000 uM after 90 mins by microfluidic peptide phosphorylation assay
T3 sequence (whole entry): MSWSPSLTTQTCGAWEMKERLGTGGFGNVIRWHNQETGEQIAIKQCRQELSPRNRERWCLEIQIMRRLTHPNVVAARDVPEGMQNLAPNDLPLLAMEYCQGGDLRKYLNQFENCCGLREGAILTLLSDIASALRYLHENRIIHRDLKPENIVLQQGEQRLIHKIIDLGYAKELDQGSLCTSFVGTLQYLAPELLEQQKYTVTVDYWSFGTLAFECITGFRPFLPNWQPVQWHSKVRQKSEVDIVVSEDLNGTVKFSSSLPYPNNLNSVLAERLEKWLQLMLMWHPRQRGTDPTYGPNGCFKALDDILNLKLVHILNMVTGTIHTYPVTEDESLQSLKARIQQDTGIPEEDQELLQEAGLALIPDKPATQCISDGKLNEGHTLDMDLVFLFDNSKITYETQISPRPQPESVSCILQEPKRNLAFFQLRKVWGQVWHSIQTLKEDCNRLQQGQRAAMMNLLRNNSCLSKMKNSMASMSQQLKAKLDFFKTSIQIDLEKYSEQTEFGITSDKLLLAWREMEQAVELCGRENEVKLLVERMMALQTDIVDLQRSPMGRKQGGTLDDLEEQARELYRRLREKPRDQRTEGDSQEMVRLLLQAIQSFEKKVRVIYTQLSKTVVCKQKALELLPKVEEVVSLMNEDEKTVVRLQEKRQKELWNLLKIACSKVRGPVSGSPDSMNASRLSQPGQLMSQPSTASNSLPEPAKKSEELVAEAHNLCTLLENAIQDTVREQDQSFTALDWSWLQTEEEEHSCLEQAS

Chain of Ribosomal protein S6 kinase alpha-1 (Homo sapiens) (Q15418 whole entry): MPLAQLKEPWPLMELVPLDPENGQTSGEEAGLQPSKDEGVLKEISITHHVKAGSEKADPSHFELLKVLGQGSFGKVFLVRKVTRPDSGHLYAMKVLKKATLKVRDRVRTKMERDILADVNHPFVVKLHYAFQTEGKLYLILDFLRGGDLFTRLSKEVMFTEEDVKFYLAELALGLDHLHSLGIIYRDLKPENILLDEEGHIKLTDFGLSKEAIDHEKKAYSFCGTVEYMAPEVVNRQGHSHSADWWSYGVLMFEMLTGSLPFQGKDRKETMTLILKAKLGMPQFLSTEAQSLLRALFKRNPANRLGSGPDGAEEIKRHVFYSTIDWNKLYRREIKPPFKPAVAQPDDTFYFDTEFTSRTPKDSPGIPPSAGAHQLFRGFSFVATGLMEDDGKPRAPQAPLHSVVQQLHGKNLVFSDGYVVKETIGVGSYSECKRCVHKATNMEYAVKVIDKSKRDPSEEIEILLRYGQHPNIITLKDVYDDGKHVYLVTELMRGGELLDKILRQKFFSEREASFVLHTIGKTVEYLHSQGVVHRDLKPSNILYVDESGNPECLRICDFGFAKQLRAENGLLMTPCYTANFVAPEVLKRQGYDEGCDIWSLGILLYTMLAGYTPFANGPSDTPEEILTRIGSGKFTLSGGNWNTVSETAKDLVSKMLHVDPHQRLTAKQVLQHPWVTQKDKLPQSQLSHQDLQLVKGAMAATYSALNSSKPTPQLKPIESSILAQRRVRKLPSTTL
Chain of Tyrosine-protein kinase Lck (Homo sapiens) (P06239 2-509 limits assumed): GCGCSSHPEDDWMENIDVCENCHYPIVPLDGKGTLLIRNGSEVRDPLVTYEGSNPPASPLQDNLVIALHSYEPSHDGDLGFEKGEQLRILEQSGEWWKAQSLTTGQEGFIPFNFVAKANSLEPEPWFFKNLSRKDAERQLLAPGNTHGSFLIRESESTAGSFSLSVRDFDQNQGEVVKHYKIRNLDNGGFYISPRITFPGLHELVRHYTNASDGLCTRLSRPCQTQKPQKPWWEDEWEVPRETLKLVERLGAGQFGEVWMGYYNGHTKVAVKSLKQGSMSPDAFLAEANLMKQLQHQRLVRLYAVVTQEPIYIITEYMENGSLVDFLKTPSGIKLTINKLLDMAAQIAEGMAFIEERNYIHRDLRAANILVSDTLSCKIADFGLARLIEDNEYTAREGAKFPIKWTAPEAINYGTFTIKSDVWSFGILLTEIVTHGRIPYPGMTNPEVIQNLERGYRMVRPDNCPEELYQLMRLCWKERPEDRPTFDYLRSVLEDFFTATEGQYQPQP
Chain of MAP kinase-activated protein kinase 3 (Homo sapiens) (Q16644 whole entry, looked up, the tested form may be a part): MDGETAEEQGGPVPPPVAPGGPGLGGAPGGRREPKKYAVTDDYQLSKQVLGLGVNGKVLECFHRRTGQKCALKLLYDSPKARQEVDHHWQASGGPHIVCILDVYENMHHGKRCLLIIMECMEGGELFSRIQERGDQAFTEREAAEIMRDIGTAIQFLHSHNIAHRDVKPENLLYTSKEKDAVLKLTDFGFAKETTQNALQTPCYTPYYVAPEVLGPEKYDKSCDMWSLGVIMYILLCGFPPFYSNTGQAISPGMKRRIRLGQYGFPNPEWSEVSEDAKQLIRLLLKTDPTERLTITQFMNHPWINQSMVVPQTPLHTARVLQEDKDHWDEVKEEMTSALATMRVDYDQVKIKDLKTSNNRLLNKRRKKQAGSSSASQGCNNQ
Chain of Tyrosine-protein kinase HCK (Homo sapiens) (P08631 2-526 limits assumed): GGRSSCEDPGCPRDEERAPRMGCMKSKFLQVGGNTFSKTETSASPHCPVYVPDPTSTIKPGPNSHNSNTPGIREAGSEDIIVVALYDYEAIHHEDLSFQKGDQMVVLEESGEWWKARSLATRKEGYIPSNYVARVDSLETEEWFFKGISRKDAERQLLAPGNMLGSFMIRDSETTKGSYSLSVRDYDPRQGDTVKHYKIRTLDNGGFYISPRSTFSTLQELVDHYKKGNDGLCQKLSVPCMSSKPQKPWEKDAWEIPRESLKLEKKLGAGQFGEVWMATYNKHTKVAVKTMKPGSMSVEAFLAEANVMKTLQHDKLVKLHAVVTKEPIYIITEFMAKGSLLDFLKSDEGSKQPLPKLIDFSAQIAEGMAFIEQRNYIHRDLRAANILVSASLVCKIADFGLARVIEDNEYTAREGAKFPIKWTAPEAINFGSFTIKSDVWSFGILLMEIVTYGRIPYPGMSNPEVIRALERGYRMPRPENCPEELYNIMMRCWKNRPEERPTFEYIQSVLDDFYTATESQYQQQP

Work on `Clc1ccc(C2(c3ccc(-c4ncnc5[nH]cnc45)cc3)CCNCC2)cc1` yielded an inhibition [1] of 35%.

Compound `NC1CCN(c2ncnc3[nH]ccc23)CC1` has an inhibition (Homo sapiens) of 3.5% and an inhibition [2] of 0%.

Compound `C[C@H](CN(C)C)Oc1nc(Nc2cc3cccc(Cl)c3cn2)cnc1C#N` has an inhibition [3] of 48.5%.

Compound `NCCc1ccc(-c2ncnc3[nH]cnc23)cc1` has an inhibition [4] of 24% and an inhibition [5] of 52.5%.

For `NCC1CCN(c2ncnc3[nH]ccc23)CC1`, the inhibition [6] was 16.5% and the inhibition [7] was 48.5%.

`c1cnc2[nH]ccc2c1` showed an inhibition [8] of 95.5%.
